Measured values: publication PMC4457528, “Identification of Novel Small Molecule Inhibitors of Oncogenic RET Kinase” (PLoS ONE, 2015)
Where two headings read alike, the source gives them in different places.

Assays:
Test in all cases: KinomeScan kinase panel, single concentration 10 µM
Type in all cases: binding
KinomeScan kinase panel [1] = molecular target: T1, KinomeScan kinase panel (Homo sapiens, UniProt Q99640); settings: PKMYT1, 10 µM
T1 construct: purchased DiscoveRx (KinomeScan)
T1 sequence (Q99640 1-499): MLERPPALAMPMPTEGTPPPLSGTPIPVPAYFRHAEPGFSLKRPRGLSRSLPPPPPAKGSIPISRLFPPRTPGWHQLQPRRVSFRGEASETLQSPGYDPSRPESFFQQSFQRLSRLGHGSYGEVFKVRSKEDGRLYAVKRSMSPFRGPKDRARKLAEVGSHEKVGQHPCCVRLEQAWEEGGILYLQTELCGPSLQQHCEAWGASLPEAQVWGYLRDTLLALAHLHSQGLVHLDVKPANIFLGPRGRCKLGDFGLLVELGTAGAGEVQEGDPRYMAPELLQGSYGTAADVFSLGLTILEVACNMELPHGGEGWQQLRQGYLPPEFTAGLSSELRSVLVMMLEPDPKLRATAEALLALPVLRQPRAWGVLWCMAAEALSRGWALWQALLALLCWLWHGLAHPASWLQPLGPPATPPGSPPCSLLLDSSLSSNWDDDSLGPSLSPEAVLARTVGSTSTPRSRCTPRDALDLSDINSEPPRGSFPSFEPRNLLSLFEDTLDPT

KinomeScan kinase panel [2] = molecular target: T2, KinomeScan kinase panel (Homo sapiens, UniProt P42336); settings: PIK3CA, 10 µM; read-out: score (%)
T2 construct: purchased DiscoveRx (KinomeScan)

KinomeScan kinase panel [3] = molecular target: T3, KinomeScan kinase panel (Homo sapiens, UniProt Q8NEV4); settings: MYO3A, 10 µM; read-out: score (%)
T3 construct: purchased DiscoveRx (KinomeScan)

KinomeScan kinase panel [4] = molecular target: T4, KinomeScan kinase panel (Homo sapiens, UniProt Q9Y6R4); settings: MAP3K4, 10 µM; read-out: score (%)
T4 construct: purchased DiscoveRx (KinomeScan)

KinomeScan kinase panel [5] = molecular target: T5, KinomeScan kinase panel (Homo sapiens, UniProt P36507); settings: MEK2, 10 µM; read-out: score (%)
T5 construct: purchased DiscoveRx (KinomeScan)

KinomeScan kinase panel [6] = molecular target: T6, KinomeScan kinase panel (Homo sapiens, UniProt P00533, G719S); settings: EGFR(G719S), 10 µM
T6 construct: purchased DiscoveRx (KinomeScan)

KinomeScan kinase panel [7] = molecular target: T7, KinomeScan kinase panel (Homo sapiens, UniProt Q9H0K1); settings: read-out: score (%)
T7 construct: purchased DiscoveRx (KinomeScan)

KinomeScan kinase panel [8] = molecular target: T8, KinomeScan kinase panel (Homo sapiens, UniProt P00519, T315I); settings: 10 µM, read-out: score (%)
T8 construct: purchased DiscoveRx (KinomeScan)

KinomeScan kinase panel [9] = molecular target: T9, KinomeScan kinase panel (Homo sapiens, UniProt Q06187); settings: BTK, 10 µM
T9 construct: purchased DiscoveRx (KinomeScan)

KinomeScan kinase panel [10] = molecular target: T10, KinomeScan kinase panel (Homo sapiens, UniProt P52333); settings: 10 µM, read-out: score (%)
T10 construct: purchased DiscoveRx (KinomeScan)
T10 sequence (P52333 1-1124): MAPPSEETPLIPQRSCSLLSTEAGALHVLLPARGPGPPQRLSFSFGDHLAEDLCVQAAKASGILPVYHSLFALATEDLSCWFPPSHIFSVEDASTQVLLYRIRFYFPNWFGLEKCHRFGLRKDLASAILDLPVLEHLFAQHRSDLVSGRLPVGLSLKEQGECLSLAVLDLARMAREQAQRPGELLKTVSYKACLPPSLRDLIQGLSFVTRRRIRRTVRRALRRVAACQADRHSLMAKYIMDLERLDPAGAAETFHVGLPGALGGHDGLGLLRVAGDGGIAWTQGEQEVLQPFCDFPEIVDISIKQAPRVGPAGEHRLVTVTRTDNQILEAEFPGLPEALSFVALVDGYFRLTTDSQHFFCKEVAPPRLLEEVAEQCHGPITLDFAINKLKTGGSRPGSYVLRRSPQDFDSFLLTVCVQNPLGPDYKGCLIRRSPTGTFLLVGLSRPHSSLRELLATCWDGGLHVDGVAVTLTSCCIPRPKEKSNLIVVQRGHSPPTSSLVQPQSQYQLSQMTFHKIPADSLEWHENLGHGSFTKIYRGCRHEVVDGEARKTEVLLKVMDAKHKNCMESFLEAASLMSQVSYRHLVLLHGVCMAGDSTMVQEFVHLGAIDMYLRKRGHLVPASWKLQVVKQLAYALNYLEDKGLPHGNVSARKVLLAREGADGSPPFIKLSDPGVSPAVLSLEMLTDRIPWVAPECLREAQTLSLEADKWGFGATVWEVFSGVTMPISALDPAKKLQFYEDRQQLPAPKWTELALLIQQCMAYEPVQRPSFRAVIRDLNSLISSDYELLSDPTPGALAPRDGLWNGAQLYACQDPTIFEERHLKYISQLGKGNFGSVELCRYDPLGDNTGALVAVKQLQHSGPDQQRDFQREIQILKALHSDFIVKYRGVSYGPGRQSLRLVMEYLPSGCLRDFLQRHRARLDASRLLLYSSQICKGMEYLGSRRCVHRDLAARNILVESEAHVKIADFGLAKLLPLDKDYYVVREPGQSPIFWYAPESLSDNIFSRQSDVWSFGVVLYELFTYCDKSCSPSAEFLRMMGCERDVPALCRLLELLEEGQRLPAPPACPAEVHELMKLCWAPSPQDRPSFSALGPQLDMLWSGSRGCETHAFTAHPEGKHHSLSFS

T2 sequence (P42336 whole entry): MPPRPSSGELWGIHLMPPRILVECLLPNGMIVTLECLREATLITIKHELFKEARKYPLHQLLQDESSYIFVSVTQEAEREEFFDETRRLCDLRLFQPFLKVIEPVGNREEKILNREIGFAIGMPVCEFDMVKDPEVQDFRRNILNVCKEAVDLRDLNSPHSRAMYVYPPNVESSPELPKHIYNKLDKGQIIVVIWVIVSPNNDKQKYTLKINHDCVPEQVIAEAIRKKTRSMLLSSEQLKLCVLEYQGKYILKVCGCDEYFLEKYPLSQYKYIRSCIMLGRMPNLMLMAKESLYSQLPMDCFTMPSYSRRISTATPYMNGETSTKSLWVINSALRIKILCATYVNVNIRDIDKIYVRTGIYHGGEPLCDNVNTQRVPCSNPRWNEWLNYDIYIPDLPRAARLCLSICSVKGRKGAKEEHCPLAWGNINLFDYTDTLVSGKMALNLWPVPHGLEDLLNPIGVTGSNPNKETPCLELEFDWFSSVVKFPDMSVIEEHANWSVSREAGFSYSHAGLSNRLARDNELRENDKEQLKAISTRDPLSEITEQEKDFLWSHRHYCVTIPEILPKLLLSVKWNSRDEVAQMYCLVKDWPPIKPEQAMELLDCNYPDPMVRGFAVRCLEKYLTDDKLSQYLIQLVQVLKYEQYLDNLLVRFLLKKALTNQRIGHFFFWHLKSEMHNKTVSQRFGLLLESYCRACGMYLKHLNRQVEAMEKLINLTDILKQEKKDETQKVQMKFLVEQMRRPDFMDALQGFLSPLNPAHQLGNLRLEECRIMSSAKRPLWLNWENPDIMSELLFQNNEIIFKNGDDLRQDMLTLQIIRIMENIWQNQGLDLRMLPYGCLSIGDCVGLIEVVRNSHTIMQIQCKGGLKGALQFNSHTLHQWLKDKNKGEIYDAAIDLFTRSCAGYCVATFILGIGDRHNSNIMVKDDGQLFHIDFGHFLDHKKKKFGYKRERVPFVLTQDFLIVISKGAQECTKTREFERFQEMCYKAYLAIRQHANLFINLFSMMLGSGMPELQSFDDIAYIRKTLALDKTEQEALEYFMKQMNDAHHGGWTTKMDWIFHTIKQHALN
T3 sequence (Q8NEV4 whole entry): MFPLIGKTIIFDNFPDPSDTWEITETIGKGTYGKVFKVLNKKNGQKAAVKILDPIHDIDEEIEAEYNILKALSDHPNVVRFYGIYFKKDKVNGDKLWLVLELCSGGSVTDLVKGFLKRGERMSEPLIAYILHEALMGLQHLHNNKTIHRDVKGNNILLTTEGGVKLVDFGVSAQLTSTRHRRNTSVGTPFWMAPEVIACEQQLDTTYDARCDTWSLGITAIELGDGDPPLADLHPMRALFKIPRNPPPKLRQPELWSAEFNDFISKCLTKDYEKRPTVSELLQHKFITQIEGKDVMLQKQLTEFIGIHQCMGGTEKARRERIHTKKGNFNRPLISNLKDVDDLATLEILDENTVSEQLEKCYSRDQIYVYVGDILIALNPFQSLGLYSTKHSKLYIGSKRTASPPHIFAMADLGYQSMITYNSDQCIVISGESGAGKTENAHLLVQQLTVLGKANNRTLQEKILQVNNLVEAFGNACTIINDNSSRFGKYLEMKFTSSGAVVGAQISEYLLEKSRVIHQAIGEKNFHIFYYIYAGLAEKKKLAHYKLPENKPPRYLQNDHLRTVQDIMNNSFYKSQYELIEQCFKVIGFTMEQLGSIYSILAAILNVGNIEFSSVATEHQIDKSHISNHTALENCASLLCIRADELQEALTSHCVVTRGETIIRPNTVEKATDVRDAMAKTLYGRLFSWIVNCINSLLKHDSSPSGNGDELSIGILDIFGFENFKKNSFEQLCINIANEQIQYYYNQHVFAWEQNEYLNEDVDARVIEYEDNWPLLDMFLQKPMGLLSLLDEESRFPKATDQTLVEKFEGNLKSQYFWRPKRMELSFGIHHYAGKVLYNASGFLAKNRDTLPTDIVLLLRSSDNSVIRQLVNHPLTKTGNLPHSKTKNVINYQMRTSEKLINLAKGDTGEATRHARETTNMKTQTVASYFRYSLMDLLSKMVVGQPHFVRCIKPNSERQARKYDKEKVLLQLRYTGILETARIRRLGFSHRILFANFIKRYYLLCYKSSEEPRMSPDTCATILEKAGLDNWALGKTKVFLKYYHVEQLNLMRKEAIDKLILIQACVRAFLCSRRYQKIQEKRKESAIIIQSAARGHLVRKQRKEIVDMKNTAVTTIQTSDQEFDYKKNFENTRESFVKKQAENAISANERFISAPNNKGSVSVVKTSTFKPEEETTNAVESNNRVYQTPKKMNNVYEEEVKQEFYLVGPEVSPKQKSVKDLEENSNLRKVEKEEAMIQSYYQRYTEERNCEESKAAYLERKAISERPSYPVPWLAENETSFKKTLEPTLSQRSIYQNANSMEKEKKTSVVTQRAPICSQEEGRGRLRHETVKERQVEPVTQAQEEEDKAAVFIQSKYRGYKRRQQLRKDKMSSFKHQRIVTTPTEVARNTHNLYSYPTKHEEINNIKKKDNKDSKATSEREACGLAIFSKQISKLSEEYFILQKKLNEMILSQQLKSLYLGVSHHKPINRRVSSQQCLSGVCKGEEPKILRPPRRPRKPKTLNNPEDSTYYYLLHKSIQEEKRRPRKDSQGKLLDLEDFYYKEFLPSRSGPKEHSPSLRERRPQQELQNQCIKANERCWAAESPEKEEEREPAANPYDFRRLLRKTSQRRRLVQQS
T6 sequence (P00533 25-1210 G719S): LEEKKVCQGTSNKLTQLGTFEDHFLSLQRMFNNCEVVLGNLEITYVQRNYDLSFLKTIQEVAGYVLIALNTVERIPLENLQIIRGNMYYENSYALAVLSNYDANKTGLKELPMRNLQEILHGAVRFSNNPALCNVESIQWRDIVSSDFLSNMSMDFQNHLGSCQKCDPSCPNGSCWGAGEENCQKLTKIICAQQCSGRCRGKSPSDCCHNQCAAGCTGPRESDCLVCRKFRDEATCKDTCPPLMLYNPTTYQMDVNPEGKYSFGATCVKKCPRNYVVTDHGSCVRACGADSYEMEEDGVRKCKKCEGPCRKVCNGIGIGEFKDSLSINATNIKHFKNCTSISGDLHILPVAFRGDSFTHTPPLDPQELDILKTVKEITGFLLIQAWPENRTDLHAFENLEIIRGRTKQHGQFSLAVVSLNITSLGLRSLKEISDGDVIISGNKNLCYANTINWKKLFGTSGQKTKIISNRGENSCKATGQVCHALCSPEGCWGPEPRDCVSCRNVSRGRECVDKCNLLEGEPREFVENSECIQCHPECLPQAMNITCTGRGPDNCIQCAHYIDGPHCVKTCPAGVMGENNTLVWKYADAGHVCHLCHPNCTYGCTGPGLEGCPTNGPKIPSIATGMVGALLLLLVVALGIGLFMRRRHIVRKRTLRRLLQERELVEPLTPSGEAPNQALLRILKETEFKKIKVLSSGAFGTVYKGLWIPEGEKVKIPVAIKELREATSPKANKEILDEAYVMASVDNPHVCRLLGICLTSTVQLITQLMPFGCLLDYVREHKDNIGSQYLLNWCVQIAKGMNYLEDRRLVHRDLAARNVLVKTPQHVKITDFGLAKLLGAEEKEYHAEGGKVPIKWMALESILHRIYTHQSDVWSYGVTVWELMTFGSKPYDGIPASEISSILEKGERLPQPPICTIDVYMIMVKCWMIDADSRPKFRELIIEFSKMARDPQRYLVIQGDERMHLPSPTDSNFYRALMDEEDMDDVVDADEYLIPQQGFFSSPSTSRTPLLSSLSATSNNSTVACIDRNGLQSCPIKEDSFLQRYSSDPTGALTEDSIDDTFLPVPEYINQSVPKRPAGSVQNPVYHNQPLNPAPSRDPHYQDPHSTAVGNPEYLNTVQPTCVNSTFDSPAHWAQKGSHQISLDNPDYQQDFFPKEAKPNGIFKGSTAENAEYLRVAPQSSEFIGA
T9 sequence (Q06187 whole entry): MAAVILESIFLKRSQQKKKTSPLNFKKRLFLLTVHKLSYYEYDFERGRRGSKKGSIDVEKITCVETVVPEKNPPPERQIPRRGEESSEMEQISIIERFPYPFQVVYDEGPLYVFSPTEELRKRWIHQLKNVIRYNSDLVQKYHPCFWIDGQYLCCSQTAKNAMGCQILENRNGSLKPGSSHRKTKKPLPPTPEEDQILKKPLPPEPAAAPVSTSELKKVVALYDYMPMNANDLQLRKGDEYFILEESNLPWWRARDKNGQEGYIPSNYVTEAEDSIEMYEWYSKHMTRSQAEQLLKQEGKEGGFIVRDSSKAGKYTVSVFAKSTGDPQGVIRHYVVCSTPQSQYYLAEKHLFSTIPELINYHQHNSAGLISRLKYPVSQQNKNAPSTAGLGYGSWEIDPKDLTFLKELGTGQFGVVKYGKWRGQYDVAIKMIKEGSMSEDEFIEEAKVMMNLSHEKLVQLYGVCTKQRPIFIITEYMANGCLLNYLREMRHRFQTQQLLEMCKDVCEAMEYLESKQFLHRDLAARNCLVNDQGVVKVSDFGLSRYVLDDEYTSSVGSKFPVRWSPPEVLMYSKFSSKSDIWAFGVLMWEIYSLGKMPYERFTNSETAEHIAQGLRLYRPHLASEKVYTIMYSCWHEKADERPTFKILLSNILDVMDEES
T5 sequence (P36507 whole entry): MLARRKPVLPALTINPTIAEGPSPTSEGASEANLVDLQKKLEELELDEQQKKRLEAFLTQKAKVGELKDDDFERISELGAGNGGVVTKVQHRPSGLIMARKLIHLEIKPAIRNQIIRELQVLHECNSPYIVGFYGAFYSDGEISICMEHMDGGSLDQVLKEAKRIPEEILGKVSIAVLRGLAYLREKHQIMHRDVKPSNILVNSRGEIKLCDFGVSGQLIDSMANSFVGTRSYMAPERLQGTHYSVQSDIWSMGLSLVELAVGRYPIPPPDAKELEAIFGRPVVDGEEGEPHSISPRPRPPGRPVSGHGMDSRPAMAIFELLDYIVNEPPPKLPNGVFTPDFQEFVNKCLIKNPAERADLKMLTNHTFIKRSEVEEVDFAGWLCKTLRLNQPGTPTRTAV

Compound	score (%) (KinomeScan kinase panel [1])	remaining binding at 10 µM (KinomeScan kinase panel [2]) [%]	remaining binding at 10 µM (KinomeScan kinase panel [3]) [%]	remaining binding at 10 µM (KinomeScan kinase panel [4]) [%]	remaining binding at 10 µM (KinomeScan kinase panel [5]) [%]	score (%) (KinomeScan kinase panel [6])	remaining binding at 10 µM (KinomeScan kinase panel [7]; kinase SIK2, 10 µM) [%]	remaining binding at 10 µM (KinomeScan kinase panel [8]; ABL1(T315I)) [%]	score (%) (KinomeScan kinase panel [9])	remaining binding at 10 µM (KinomeScan kinase panel [10]; JAK3(JH1domain-catalytic)) [%]	remaining binding at 10 µM (KinomeScan kinase panel [7]; SNF1LK2, 10 µM) [%]	remaining binding at 10 µM (KinomeScan kinase panel [10]; JAK3(Kin.Dom.2)) [%]	remaining binding at 10 µM (KinomeScan kinase panel [8]; ABL1(T315I)-nonphosphorylated) [%]	remaining binding at 10 µM (KinomeScan kinase panel [8]; ABL1(T315I)-phosphorylated) [%]
CCN1CCN(Cc2ccc(NC(=O)c3ccc(C)c(NC(=O)c4cncc(-c5cccs5)c4)c3)cc2C(F)(F)F)CC1 [ALW-II-41-27]	nb (Hits values higher than 30% were considered negative (no binding: nb))	> 30	17	> 30	> 30	0.5	13	0.7	0.1	3.7				
CCN1CCN(Cc2ccc(NC(=O)c3ccc(C)c(/C=C/c4cnc5[nH]ccc5c4Cl)c3)cc2C(F)(F)F)CC1 [HG-6-63-01, (E)-3-(2-(4-chloro-1H-pyrrolo[2,3-b]pyridin-5-yl)vinyl)-N-(4-((4-ethylpiperazin-1-yl)methyl)-3-(trifluoromethyl)phenyl)-4-methylbenzamide]	nb (Hits values higher than 30% were considered negative (no binding: nb))	> 30	> 30	> 30	> 30	0.1		0	3.8		6.4	3.5		
CCN1CCN(Cc2ccc(NC(=O)c3ccc(C)c(C#Cc4cccnc4)c3)cc2C(F)(F)F)CC1 [XMD15-44]	85%	100	3.2	> 30	> 30	2.4	21		2	2.3			2.8	2.6
